Consider 18 molecules from US12522601B2, “1,3,4-oxadiazole derivative compounds as histone deacetylase 6 inhibitor, and the pharmaceutical composition comprising the same” (CHONG KUN DANG PHARMACEUTICAL CORP., priority 2020, dated 2026).

Test [1] deals with T1, human recombinant HDAC6 (Homo sapiens, UniProt Q9UBN7).
T1 construct: purchased Calbiochem Inc. 382180
T1 sequence (Q9UBN7 1-1215): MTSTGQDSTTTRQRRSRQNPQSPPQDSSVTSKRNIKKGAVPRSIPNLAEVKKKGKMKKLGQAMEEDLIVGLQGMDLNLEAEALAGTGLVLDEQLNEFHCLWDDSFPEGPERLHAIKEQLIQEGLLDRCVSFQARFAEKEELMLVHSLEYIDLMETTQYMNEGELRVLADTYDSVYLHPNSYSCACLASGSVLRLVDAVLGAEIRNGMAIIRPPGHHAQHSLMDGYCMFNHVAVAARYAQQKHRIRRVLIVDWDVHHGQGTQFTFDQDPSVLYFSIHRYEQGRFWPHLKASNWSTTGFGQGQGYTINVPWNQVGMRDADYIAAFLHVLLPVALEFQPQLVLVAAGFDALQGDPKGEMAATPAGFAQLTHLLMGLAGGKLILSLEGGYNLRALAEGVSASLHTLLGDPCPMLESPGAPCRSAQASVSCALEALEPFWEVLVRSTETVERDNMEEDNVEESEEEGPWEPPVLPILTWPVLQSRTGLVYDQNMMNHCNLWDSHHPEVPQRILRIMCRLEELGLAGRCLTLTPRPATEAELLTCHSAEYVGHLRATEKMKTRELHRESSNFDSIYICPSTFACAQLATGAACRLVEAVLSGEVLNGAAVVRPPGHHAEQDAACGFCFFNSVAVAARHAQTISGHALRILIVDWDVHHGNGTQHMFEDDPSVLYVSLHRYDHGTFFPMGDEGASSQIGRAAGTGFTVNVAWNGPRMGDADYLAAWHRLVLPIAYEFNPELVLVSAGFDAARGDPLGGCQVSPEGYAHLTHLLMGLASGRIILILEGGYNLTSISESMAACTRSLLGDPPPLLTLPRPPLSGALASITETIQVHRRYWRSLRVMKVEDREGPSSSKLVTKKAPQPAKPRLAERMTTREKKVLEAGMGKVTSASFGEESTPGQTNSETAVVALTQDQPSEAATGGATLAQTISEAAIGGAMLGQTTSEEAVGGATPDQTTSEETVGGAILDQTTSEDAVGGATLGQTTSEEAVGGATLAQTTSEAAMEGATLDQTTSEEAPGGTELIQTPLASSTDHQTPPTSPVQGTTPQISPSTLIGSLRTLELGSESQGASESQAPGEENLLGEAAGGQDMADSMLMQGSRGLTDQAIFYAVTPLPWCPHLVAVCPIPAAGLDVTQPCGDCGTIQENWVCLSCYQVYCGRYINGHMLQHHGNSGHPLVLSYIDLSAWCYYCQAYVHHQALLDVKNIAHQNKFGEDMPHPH
As to the kind of experiment: In vitro HDAC enzyme activity inhibition assay, HDAC6 (HDAC Fluorimetric Drug Discovery Kit). It is filed as biochemical. Conditions: for HDAC6 Selectivity (fold): HDAC6 versus HDAC1; for IC50: human recombinant HDAC6, same protocol as the HDAC1 test. In outline: (§1)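 Fluorimetric deacetylase kit; 0.3 μg human recombinant enzyme with 10 μM Fluor de Lys-SIRT1 substrate, 60 min at 30° C, then developer 30 min. Fluorescence read at Ex 360/Em 460; IC50 from 5-fold compound dilutions. HDAC1 and HDAC6 run by the same protocol.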

Test [2] deals with T2, human recombinant HDAC1 (Homo sapiens, UniProt Q13547).
T2 construct: purchased Enzo Life Sciences, Inc. BML-SE456
T2 sequence (Q13547 whole entry): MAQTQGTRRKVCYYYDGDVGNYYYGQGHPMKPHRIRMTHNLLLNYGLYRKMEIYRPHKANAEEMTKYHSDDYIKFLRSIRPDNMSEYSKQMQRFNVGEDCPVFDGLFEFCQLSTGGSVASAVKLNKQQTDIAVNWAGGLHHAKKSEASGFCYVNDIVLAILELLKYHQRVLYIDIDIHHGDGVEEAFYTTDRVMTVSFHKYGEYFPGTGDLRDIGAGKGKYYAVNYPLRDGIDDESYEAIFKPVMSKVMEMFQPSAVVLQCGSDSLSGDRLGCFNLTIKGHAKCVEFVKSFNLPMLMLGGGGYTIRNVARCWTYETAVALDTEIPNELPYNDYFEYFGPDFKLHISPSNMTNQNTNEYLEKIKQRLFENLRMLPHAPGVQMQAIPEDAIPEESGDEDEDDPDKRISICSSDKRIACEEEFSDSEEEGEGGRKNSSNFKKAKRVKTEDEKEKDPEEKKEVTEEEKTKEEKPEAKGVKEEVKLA
As to the kind of experiment: In vitro HDAC enzyme activity inhibition assay, HDAC1 (HDAC Fluorimetric Drug Discovery Kit). The class given is biochemical. Conditions: human recombinant HDAC1, Fluor de Lys-SIRT1 substrate 10 μM, 30° C. for 60 minutes. The method in brief: as §1

In the case of `CN(Cc1cn2ccc(-c3nnc(C(F)F)o3)cc2n1)c1ccccc1` [Compound 3725, N-((7-(5-(difluoromethyl)-1,3,4-oxadiazol-2-yl)imidazo[1,2-a]pyridin-2-yl)methyl)-N-methylaniline], in test [1], the “HDAC6 Selectivity (fold)” value was 282 fold. The IC50 in test [1] was 177 nM; in test [2] it was greater than 50000 nM.
As to `O=C(C1CCN(C2COC2)CC1)N(Cc1cn2ccc(-c3nnc(C(F)F)o3)cc2n1)c1ccccc1` [Compound 3783, N-((7-(5-(difluoromethyl)-1,3,4-oxadiazol-2-yl)imidazo[1,2-a]pyridin-2-yl)methyl)-1-(oxetan-3-yl)-N-phenylpiperidine-4-carboxamide], in test [1], the “HDAC6 Selectivity (fold)” value is 696 fold and the IC50 worked out at 71.8 nM. Besides, in test [2], the IC50 was greater than 50000 nM.
Consider `O=C(N1CCN(C2CCCCC2)CC1)N(Cc1cn2ccc(-c3nnc(C(F)F)o3)cc2n1)c1ccccc1` [Compound 4037, 4-cyclohexyl-N-((7-(5-(difluoromethyl)-1,3,4-oxadiazol-2-yl)imidazo[1,2-a]pyridin-2-yl)methyl)-N-phenylpiperazine-1-carboxamide], for which, in test [1], the “HDAC6 Selectivity (fold)” value is on record as 404 fold and the IC50 stood at 124 nM. In test [2], the IC50 was greater than 50000 nM.
The matching figures for `CC(=O)c1cccc(OCc2cn3ccc(-c4nnc(C(F)F)o4)cc3n2)c1` [Compound 3721, 1-(3-((7-(5-(difluoromethyl)-1,3,4-oxadiazol-2-yl)imidazo[1,2-a]pyridin-2-yl)methoxy)phenyl)ethan-1-one]: 123 fold, 406 nM and greater than 50000 nM.
For `CC(C)N1CCC(C(=O)N(Cc2cn3ccc(-c4nnc(C(F)F)o4)cc3n2)c2ccccc2)CC1` [Compound 4116, N-((7-(5-(difluoromethyl)-1,3,4-oxadiazol-2-yl)imidazo[1,2-a]pyridin-2-yl)methyl)-1-isopropyl-N-phenylpiperidine-4-carboxamide], in test [1], the “HDAC6 Selectivity (fold)” value was found to be 159 fold. The values for the IC50 in test [1] and in test [2] were 314 nM and greater than 50000 nM, respectively.
In the case of `O=C(N1CCN(C2COC2)CC1)N(Cc1cn2ccc(-c3nnc(C(F)F)o3)cc2n1)c1ccccc1` [Compound 3785], in test [1], the “HDAC6 Selectivity (fold)” value is 437 fold and the half-maximal inhibitory concentration (IC50) is 114 nM. In test [2], the IC50 is greater than 50000 nM.
Regarding `O=C(N1CCN(C2CCCCC2)CC1)N(Cc1cn2ccc(-c3nnc(C(F)F)o3)cc2n1)c1cccc(F)c1` [Compound 4089, 4-cyclohexyl-N-((7-(5-(difluoromethyl)-1,3,4-oxadiazol-2-yl)imidazo[1,2-a]pyridin-2-yl)methyl)-N-(3-fluorophenyl)piperazine-1-carboxamide], in test [1], the “HDAC6 Selectivity (fold)” value is on record as 113 fold and the IC50 was determined as 443 nM. Besides, the IC50 in test [2] was greater than 50000 nM.
Turning to `Fc1cccc(Cc2cn3ccc(-c4nnc(C(F)F)o4)cc3n2)c1` [Compound 3585, 2-(difluoromethyl)-5-(2-(3-fluorobenzyl)imidazo[1,2-a]pyridin-7-yl)-1,3,4-oxadiazole], in test [1], the “HDAC6 Selectivity (fold)” value was 386 fold and the IC50 came out at 130 nM. For the same molecule, the IC50 in test [2] is greater than 50000 nM.
As for `O=C(C1COC1)N1CC(C(=O)N(Cc2cn3ccc(-c4nnc(C(F)F)o4)cc3n2)c2ccccc2)C1` [Compound 4171, N-((7-(5-(difluoromethyl)-1,3,4-oxadiazol-2-yl)imidazo[1,2-a]pyridin-2-yl)methyl)-1-(oxetan-3-carbonyl)-N-phenylazetidine-3-carboxamide], in test [1], the “HDAC6 Selectivity (fold)” value worked out at 141 fold and the IC50 turned out to be 355 nM. Further, the IC50 in test [2] was greater than 50000 nM.
On to `CN1CCC(C(=O)N(Cc2cn3ccc(-c4nnc(C(F)F)o4)cc3n2)c2ccccc2)CC1` [Compound 3782, N-((7-(5-(difluoromethyl)-1,3,4-oxadiazol-2-yl)imidazo[1,2-a]pyridin-2-yl)methyl)-1-methyl-N-phenylpiperidine-4-carboxamide], for which, in test [1], the “HDAC6 Selectivity (fold)” value was 740 fold and the IC50 came out at 67.6 nM. In addition, the IC50 in test [2] is greater than 50000 nM.
For the molecule `O=C(C1CCC1)N1CC(C(=O)N(Cc2cn3ccc(-c4nnc(C(F)F)o4)cc3n2)c2ccccc2)C1` [Compound 4170, 1-(cyclobutanecarbonyl)-N-((7-(5-(difluoromethyl)-1,3,4-oxadiazol-2-yl)imidazo[1,2-a]pyridine-2-yl)methyl)-N-phenylazetidine-3-carboxamide], in test [1], the “HDAC6 Selectivity (fold)” value turned out to be 144 fold and the IC50 turned out to be 347 nM. Further, in test [2], the IC50 is greater than 50000 nM.
Regarding `COC(=O)N1CC(C(=O)N(Cc2cn3ccc(-c4nnc(C(F)F)o4)cc3n2)c2cccc(F)c2)C1` [Compound 4204, methyl 3-(((7-(5-(difluoromethyl)-1,3,4-oxadiazol-2-yl)imidazo[1,2-a]pyridin-2-yl)methyl)(3-fluorophenyl)carbamoyl) azetidine-1-carboxylate], in test [1], the “HDAC6 Selectivity (fold)” value turned out to be 268 fold and the IC50 is 187 nM. Besides, in test [2], the IC50 was greater than 50000 nM.
Turning to `CC(CO)N1CCC(C(=O)N(Cc2cn3ccc(-c4nnc(C(F)F)o4)cc3n2)c2cccc(F)c2)CC1` (stereo not drawn) [Compound 4140, N-((7-(5-(difluoromethyl)-1,3,4-oxadiazol-2-yl)imidazo[1,2-a]pyridin-2-yl)methyl)-N-(3-fluorophenyl)-1-(1-hydroxypropan-2-yl)piperidine-4-carboxamide], the “HDAC6 Selectivity (fold)” value in test [1] amounted to 246 fold. Besides, the IC50 is 203 nM in test [1] and greater than 50000 nM in test [2].
Consider `O=C(C1CCN(C2CCC(F)(F)CC2)CC1)N(Cc1cn2ccc(-c3nnc(C(F)F)o3)cc2n1)c1cccc(F)c1` [Compound 4145, 1-(4,4-difluorocyclohexyl)-N-((7-(5-(difluoromethyl)-1,3,4-oxadiazol-2-yl)imidazo[1,2-a]pyridin-2-yl)methyl)-N-(3-fluorophenyl)piperidine-4-carboxamide], for which the “HDAC6 Selectivity (fold)” value in test [1] is given as 217 fold. Also, the IC50 in test [1] was 230 nM; in test [2], greater than 50000 nM.
For `Cc1cccc(OCc2cn3ccc(-c4nnc(C(F)F)o4)cc3n2)c1` [Compound 3720, 2-(difluoromethyl)-5-(2-((m-tolyloxy)methyl)imidazo[1,2-a]pyridin-7-yl)-1,3,4-oxadiazole] the same measures were 121 fold, 413 nM and greater than 50000 nM.
Consider `FC(F)c1nnc(-c2ccn3cc(CNC4CCCCC4)nc3c2)o1` [Compound 3678, N-((7-(5-(difluoromethyl)-1,3,4-oxadiazol-2-yl)imidazo[1,2-a]pyridin-2-yl)methyl)cyclohexanamine], for which, in test [1], the “HDAC6 Selectivity (fold)” value was 170 fold and the IC50 was 294 nM. In test [2], the IC50 was greater than 50000 nM.
As for `CCC(=O)N1CCC(C(=O)N(Cc2cn3ccc(-c4nnc(C(F)F)o4)cc3n2)c2cccc(F)c2)CC1` [Compound 4147, N-((7-(5-(difluoromethyl)-1,3,4-oxadiazol-2-yl)imidazo[1,2-a]pyridin-2-yl)methyl)-N-(3-fluorophenyl)-1-propionylpiperidine-4-carboxamide], in test [1], the “HDAC6 Selectivity (fold)” value is 126 fold and the IC50 was 396 nM. The IC50 in test [2] is greater than 50000 nM.
As to `O=C(C1CN(C2CCC(F)(F)CC2)C1)N(Cc1cn2ccc(-c3nnc(C(F)F)o3)cc2n1)c1ccccc1` [Compound 4166, 1-(4,4-difluorocyclohexyl)-N-((7-(5-(difluoromethyl)-1,3,4-oxadiazol-2-yl)imidazo[1,2-a]pyridin-2-yl)methyl)-N-phenylazetidine-3-carboxamide], in test [1], the “HDAC6 Selectivity (fold)” value stood at 197 fold and the IC50 was 254 nM. Further, in test [2], the IC50 is greater than 50000 nM.
